Measured values as given in US20230138395A1, “PHARMACEUTICAL COMPOSITIONS OF A THERAPEUTIC POLYENE MACROLIDE AND METHODS OF THEIR USE” (priority 2020, published 2023).
In brackets after ≈: the same amount, converted by molar mass. Read-outs that look alike come from different tables or passages of the source.

Assays:
Paecilomyces strains = assay: MFC determination; assay type: cell-based, Paecilomyces spp.; conditions: Paecilomyces strains (5)
C. tropicalis [1] = assay: MIC testing (CLSI M27-A3); assay type: cell-based; conditions: for MIC Range: C. tropicalis strains, in µg/mL; for MIC50 / MIC90: C. tropicalis; for MIC50: inhibits 50% of strains; for MIC90: inhibits 90% of strains
Fusarium strains = assay: MFC determination, Table 17; assay type: cell-based, Fusarium spp.; conditions: Fusarium strains (Table 17); for MFC Range: in µg/mL; for MFC50: kills 50% of strains; for MFC90: kills 90% of strains
C. albicans SC5314 = assay: In vitro activity (MIC) against the infecting strain, Example 18; assay type: cell-based, Candida albicans; conditions: Candida albicans
C. tropicalis [2] = assay: MFC determination; assay type: cell-based; conditions: for MFC50 / MFC90: C. tropicalis; for MFC50: kills 50% of strains; for MFC90: kills 90% of strains
[3] = system: individual Aspergillus spp. (Table 13, species not given); assay: MFC determination, Table 13; assay type: cell-based; conditions: Aspergillus sp. of Table 13; for MFC50: kills 50% of strains; for MFC90: kills 90% of strains
[4] = system: individual Aspergillus spp. (Table 13, species not given); assay: MIC testing (CLSI M38-A2), Table 13; assay type: cell-based; conditions: Aspergillus sp. of Table 13, caspofungin read as MEC; for MIC Range: in µg/mL; for MIC50: inhibits 50% of strains; for MIC90: inhibits 90% of strains
[5] = system: individual Aspergillus spp. (Table 12, species not named); assay: MFC determination, Table 12; assay type: cell-based; conditions: Aspergillus sp. of Table 12; for MFC50: kills 50% of strains; for MFC90: kills 90% of strains
[6] = system: individual Aspergillus spp. (Table 15, species not named); assay: MIC testing (CLSI M38-A2), Table 15; assay type: cell-based; conditions: Aspergillus sp. of Table 15, caspofungin read as MEC; for MIC50: inhibits 50% of strains; for MIC90: inhibits 90% of strains
[7] = system: all Aspergillus strains tested; assay: MIC testing (CLSI M38-A2), summary; assay type: cell-based; conditions: caspofungin read as MEC; for MIC50: inhibits 50% of strains; for MIC90: inhibits 90% of strains
C. parapsilosis = assay: MFC determination; assay type: cell-based; conditions: for MFC50 / MFC90: C. parapsilosis; for MFC50: kills 50% of strains; for MFC90: kills 90% of strains; for MFC: individual C. parapsilosis strain with elevated MICs to non-polyene comparators (Table 22)
[8] = system: Blastomyces dermatitidis, Coccidioides immitis, and Histoplasma capsulatum strains; assay type: cell-based; conditions: dimorphic fungal isolates; in µg/mL
A. fumigatus AF91 = assay: In vitro activity (MFC) against the infecting strain, Example 17; assay type: cell-based, Aspergillus fumigatus; conditions: Aspergillus fumigatus, read-out: MFC
Procedure: Minimum Fungicidal Concentration: MFC determinations were performed according to the modifications previously described by Canton et al., Diagn. Microbiol. Infect. Dis., 45:203-206, 2003, and Ghannoum and Isham, Infectious Diseases in Clinical Practice, 15(4):250-253, 2007.
Specifically, the total contents of each clear well from the MIC assay were subcultured onto potato dextrose agar. To avoid antifungal carryover, the aliquots were allowed to soak into the agar and then were streaked for isolation once dry, thus removing the cells from the drug source. Fungicidal activity is defined as ≥99.9% reduction in the number of colony forming units (CFU)/ml from the starting inoculum count, while fungistatic activity is defined as <99.9% reduction. […] MIC and MFC values are considered to be equivalent if they are within 2 dilutions.

Row | Structure (SMILES) | MIC Range (C. tropicalis [1]) | MIC50 (C. tropicalis [1]) | MIC90 (C. tropicalis [1]) | MFC Range (Fusarium strains) | MFC50 (Fusarium strains) | MFC90 (Fusarium strains) | MFC50 (C. tropicalis [2]) | MFC90 (C. tropicalis [2]) | MFC50 [3] | MFC90 [3] | MIC Range [4] | MIC50 [4] | MIC90 [4] | MFC50 [5] | MFC90 [5] | MIC50 [6] | MIC90 [6] | MIC50 [7] | MIC90 [7] | MFC50 (C. parapsilosis) | further results
1 | OC(Cn1cncn1)(Cn1cncn1)c1ccc(F)cc1F [Fluconazole, fluconazole] | 0.25-2 | 0.25 µg/mL (≈ 0.816 µM) | 0.5 µg/mL (≈ 1.63 µM) | >64 | > 64 µg/mL | > 64 µg/mL | > 64 µg/mL | > 64 µg/mL | 64 µg/mL (≈ 209 µM) | 64 µg/mL (≈ 209 µM) | 64 | 64 µg/mL (≈ 209 µM) | 64 µg/mL (≈ 209 µM) | > 64 µg/mL | > 64 µg/mL | 64 µg/mL (≈ 209 µM) | > 64 µg/mL | > 64 µg/mL | > 64 µg/mL | > 64 µg/mL | MFC Range (Paecilomyces strains): > 64 µg/mL; MIC (C. albicans SC5314; read-out: MIC): 0.25 µg/mL (≈ 0.816 µM); MFC Range (C. tropicalis [2]; C. tropicalis strains, in µg/mL): >64; MFC Range [3]: 64 µg/mL (≈ 209 µM); MFC Range [5]: > 64 µg/mL; MFC Range (C. parapsilosis; C. parapsilosis strains, in µg/mL): >64; MFC90 (C. parapsilosis): > 64 µg/mL; MFC (C. parapsilosis; in µg/mL): >64
2 | CC[C@H](C)C[C@H](C)CCCCCCCCC(=O)N[C@H]1C[C@@H](O)[C@@H](NCCN)NC(=O)[C@@H]2[C@@H](O)CCN2C(=O)[C@H]([C@H](O)CCN)NC(=O)[C@H]([C@H](O)[C@@H](O)c2ccc(O)cc2)NC(=O)[C@@H]2C[C@@H](O)CN2C(=O)[C@H]([C@@H](C)O)NC1=O [Caspofungin, caspofungin] | 0.06-2 | 0.25 µg/mL (≈ 0.229 µM) | 0.5 µg/mL (≈ 0.457 µM) | >32 | > 32 µg/mL | > 32 µg/mL | 32 µg/mL (≈ 29.3 µM) | > 32 µg/mL | > 32 µg/mL | > 32 µg/mL | 0.25-1 | 0.25 µg/mL (≈ 0.229 µM) | 0.5 µg/mL (≈ 0.457 µM) | > 32 µg/mL | > 32 µg/mL | 0.25 µg/mL (≈ 0.229 µM) | 0.5 µg/mL (≈ 0.457 µM) | 0.25 µg/mL (≈ 0.229 µM) | 0.5 µg/mL (≈ 0.457 µM) | > 32 µg/mL | MIC Range [8]: 0.03-0.5; MIC (C. albicans SC5314; minimum effective concentration, read-out: MIC read as MEC): 0.25 µg/mL (≈ 0.229 µM); MFC (A. fumigatus AF91): > 16 µg/mL; MIC Range ([6]; in µg/mL): 0.25-1; MIC Range ([7]; in µg/mL): 0.125-8; MFC90 (C. parapsilosis): > 32 µg/mL; MFC (C. parapsilosis; in µg/mL): >32
